Laboratory results as given in patent US20020028224A1, “Cosmetic compositions containing substituted amide derivatives” (Unilever Home & Personal Care USA, Division of Conopco, Inc., priority 2000, published 2002).
“And” between values parts separate entries of the source, which are not always exact repeats. Equal values may be shown once. Read-outs that look alike come from different tables or passages of the source.

System: human sebocytes
Assay: Sebum suppression: 14C-acetate label remaining in cultured human sebocytes
Assay type: cell-based
Conditions: for activity at 1 µM / activity at 10 µM / activity at 0.1 µM / activity at 50 µM / activity at 28 µM / activity at 280 µM: Homo sapiens; for activity at 1 µM / activity at 10 µM / activity at 0.1 µM / activity at 50 µM: read-out: % of Control; for sebum suppressive activity in the presence of a retinoid / combined with retinol: summary in words, combined with retinol versus compound alone
[1] = Experiment A, 1 μM test compound + 1 μM Retinol
[2] = Experiment A, 1 μM test compound + 10 μM Retinol
[3] = Experiment A, 1 μM test compound alone
[4] = Experiment A, 10 μM test compound + 1 μM Retinol
[5] = Experiment A, 10 μM test compound + 10 μM Retinol
[6] = Experiment A, 10 μM test compound alone
[7] = Experiment B, 0.1 μM test compound + 1 μM Retinol
[8] = Experiment B, 0.1 μM test compound + 10 μM Retinol
[9] = Experiment B, 0.1 μM test compound alone
[10] = Experiment B, 1 μM test compound + 1 μM Retinol
[11] = Experiment B, 1 μM test compound + 10 μM Retinol
[12] = Experiment B, 1 μM test compound alone
[13] = Experiment B, 10 μM test compound + 1 μM Retinol
[14] = Experiment B, 10 μM test compound + 10 μM Retinol
[15] = Experiment B, 10 μM test compound alone
[16] = Experiment A, 28 μM Phenol Red (positive control)
[17] = Experiment B, 280 μM Phenol Red (positive control)

SMILES	activity at 1 µM [1]	activity at 1 µM [2]	activity at 1 µM [3]	activity at 10 µM [4]	activity at 10 µM [5]	activity at 10 µM [6]	activity at 0.1 µM [7]	activity at 0.1 µM [8]	activity at 0.1 µM [9]	activity at 1 µM [10]	activity at 1 µM [11]	activity at 1 µM [12]	activity at 10 µM [13]	activity at 10 µM [14]	activity at 10 µM [15]	sebum suppressive activity in the presence of a retinoid / combined with retinol	also measured
CC(CCC(=O)NC(=O)Nc1ccccc1Sc1ccccc1CO)C1CCC2=C3CCC4CC(O)CCC4(C)C3CC(O)C21C (centres unmarked) [Compound A]	68.5%	64.8%	68.5%	73.4%	60.8%	71%	88.8%	84.2%	84.5%	77.4%	73.9%	76.1%	62.7%	64.6%	70.2%		
CC(CCC(=O)N1CCN(c2ccccc2)CC1)C1CCC2=C3CCC4CC(O)CCC4(C)C3CC(O)C21C (centres unmarked) [Compound B]	80%	66.2%	88.1%	8.7%	7.2%	25.6%	81.7%	84.8%	87.9%	69.1%	69.9%	68%	0.3%	0.3%	0.3%		
Cc1cccc(O)c1NC(=O)OC1CC(C)CCC1C(C)C (centres unmarked) [Compound C]		66.5%	70.1%		0.2%	0.2%	94%	88.6%	97.9%	78.2%	68.8%	75.3%	0.4%	0.4%	0.4%		
O=C(Nc1ccc(O)cc1)Nc1cccc(C(F)(F)F)c1 [Compound E]	75.1%	46.4%	66.4%	32%	2.3%	50%				67.2%	54.2%	97.3%	49.8%	2.1%	66.4%	improved sebum suppressive activity	
CCOC(=O)c1ccc(NC(=O)Nc2ccc(O)cc2)cc1 [Compound F]																improved sebum suppressive activity	% of Control [1]: 67.3%; % of Control [2]: 65.8%; % of Control [3]: 84.7%; % of Control [4]: 66.2%; % of Control [5]: 53.7%; % of Control [6]: 82.7%
Cc1cccc(N2CCN(C(=O)CC3C=CC(CC(=O)N4CCN(c5cccc(C)c5)C(C)C4)C3)CC2C)c1 (centres unmarked) [Compound G]																improved sebum suppressive activity	activity at 10 µM (96 Well Plate, 10 μM test compound + 1 μM Retinol): 70.3%; activity at 10 µM (96 Well Plate, 10 μM test compound alone): 102%; activity at 50 µM (96 Well Plate, 50 μM test compound + 1 μM Retinol): 3.3%; activity at 50 µM (96 Well Plate, 50 μM test compound alone): 25.5%
O=S1(=O)OC(c2ccc(O)cc2)(c2ccc(O)cc2)c2ccccc21 [Phenol Red, phenol red, reference compound]																	% of Control [16]: 95.3%; % of Control [17]: 46.5% and 52.2% and 54.9% and 56.8%; activity at 28 µM [16]: 75.5%; activity at 280 µM (Experiment A, 280 μM Phenol Red (positive control)): 15.9%; activity at 28 µM (Experiment B, 28 μM Phenol Red (positive control)): 86.4%; activity at 280 µM [17]: 52.5%; activity at 280 µM (Table 7, 280 μM Phenol Red (positive control)): 13.2%
CC1=C(/C=C/C(C)=C/C=C/C(C)=C/CO)C(C)(C)CCC1 [Retinol, retinol, reference compound]																	activity at 10 µM (Experiment A, 10 μM Retinol alone): 105%; activity at 1 µM (Experiment B, 1 μM Retinol alone): 98.1%; activity at 10 µM (Experiment B, 10 μM Retinol alone): 106%; activity at 1 µM (Table 7, 1 μM Retinol alone): 98.1%; activity at 10 µM (Table 7, 10 μM Retinol alone): 106%
